Assay results taken from a melting point compilation (Tetko et al.; mined from patent text by program, amines drawn as free bases though some values may be those of a salt).

| SMILES | melting point |
| --- | --- |
| Cc1ccccc1C(=O)Nc1ccc(C(=O)N2CCCC(NC=O)c3ccccc32)cc1 (centres undefined) | 211 to 213 °C |
| CCOC(=O)c1cc2c(C)ccc(NS(=O)(=O)c3cccs3)c2[nH]1 | 180 to 181 °C |
| CC1(Sc2ccccc2)C(=O)C2CC=CC21 (centres undefined) | 49 °C |
| COc1cc2c(cc1OCc1ccccc1)C=C(C(=O)O)CCC2 | 172 to 173 °C |
| COc1cc(OC)cc(S(=O)(=O)c2ccc(N)c(C)c2)c1 | 121 to 123 °C |
| CC1(C)CCc2cc(S(=O)(=O)n3c(CCCC(=O)O)cc4cc(Cl)ccc43)ccc2O1 | 166 to 169 °C |
| CCOc1nn(-c2ccccn2)cc1CCCOc1cccc(OC(C)(C)C(=O)O)c1 | 99 to 101 °C |
| CCC(CO)c1ccc(N=C2SCCS2)cc1 (centres undefined) | 98.5 to 100 °C |
| CCCCC(C)(C)C(O)CCN1C(=O)NC(=O)C1CCCCCCC(=O)O (centres undefined) | 90 to 98 °C |
| Cc1cc(C(F)(F)F)nc(N(C(N)=O)c2ccccc2C(F)(F)F)n1 | 150 to 153 °C |
| CCn1c(C=NNC(N)=S)cnc1[N+](=O)[O-] | 220 to 222 °C |
| Fc1ccc(C(F)(F)F)cc1Nc1nc2ccccc2o1 | 164 to 165 °C |
| O=C(Nc1cccc2c(Cn3cnc4ccccc43)ccnc12)c1c(Cl)cccc1Cl | 248 to 253 °C |
| CC(=O)C(=O)Oc1c(C)cc(Nc2ccn(-c3ccccc3)n2)cc1C | 123 to 125 °C |
| O=C(O)CCCC(c1ccccc1)c1ccccc1 | 87 to 90 °C |
| CC(C)(C)OC(=O)N[C@@H](CC1CCCCC1)[C@@H](O)CCO | 77 to 79 °C |
| CCCC(=O)NCCC1CCc2cc(OC)ccc21 (single isomer, unassigned; (-)) | 79 to 80 °C |
| OC(c1ccccc1)(c1ccc(F)cc1)c1ncc[nH]1 (centres undefined) | 199 to 200 °C |
| CNS(=O)(=O)C(C)C(=O)C=C(C)N (centres undefined) | 140 to 143 °C |
| Cc1ccc(C=C2c3ncc(C)cc3CCC2(C)C)cc1 | 153 °C |
| Cn1c(C(F)(F)F)cc(=O)n(-c2cc(OCc3ccc(C(C)(C)C)cc3)c(Cl)cc2F)c1=O | 156 to 158 °C |
| Nc1ccc(C(=O)c2cnc(NC3CCCCC3)s2)cc1[N+](=O)[O-] | 245 to 250 °C |
| CC(C)n1nc(-c2cnc(N)nc2-c2ccccc2)ccc1=O | 214 to 215 °C |

| SMILES | melting point |
| --- | --- |
| CN1CCN(c2cc(Cl)cc3c2c(=O)n(Cc2ccccc2)c(=O)n3Cc2ccccc2)CC1 | 113 to 116 °C |
| CC(C)(C)OC(=O)Nc1ccccc1NC(=O)c1ccc(C(=O)O)cc1 | 190 to 192 °C |
| CC(=O)NCc1ccc2c(C#N)cn(C3CCN(CCc4ccc(F)cc4)CC3)c2c1 | 130 to 131 °C |
| NS(=O)(=O)OCCCN1CCC(C(O)(c2ccc(F)cc2)c2ccc(F)cc2)CC1 | 78 to 81 °C |
| CCCCCCCCCCCCCCOc1ccc(C(=O)O)cc1 | 95 to 99 °C |
| CCCCNS(=O)(=O)C[C@@H](O)C(O)[C@@H](CC1CCCCC1)NC(=O)[C@H](CC(C)C)NC(=O)CCc1ccccc1 (relative stereo) | 63 to 73 °C |
| O=C(NCCCCn1ccnc1)Nc1ccccc1Cl | 87 to 88 °C |
| O=c1nc(-c2ccnc(-c3ccccc3)c2)sc2ccccc12 | 163 °C |
| C#Cc1ccc2c(c1)C(=O)CC(C)(C)S2 | 63 to 66 °C |
| CCOC(=O)Cc1ccc(-n2c(-c3cccnc3N)nc3ccc(-c4cccnc4)nc32)cc1 | 155 to 157 °C |
| COc1cc(OC)nc(Oc2cccc(C(F)(F)F)c2C(=O)O)n1 | 151 to 153 °C |
| CC1CCN(c2nc(N)c3ccccc3n2)CC1 | 190 °C |
| Fc1ccc(-c2cc(-c3cccs3)[nH]n2)cc1 | 181 to 184 °C |
| COC(=O)c1c(NC(C)=O)sc2c1CCCC2 | 103 to 106 °C |
| Cc1ccc(-c2ccc3c(c2)C=C(C(=O)Nc2ccc(CNC(CO)CO)cc2)CC3)cc1 | 189 to 193 °C |
| COc1cc(OC)nc(C2(O)OC(=O)c3c(-c4ccc(Cl)cc4)ccnc32)n1 (centres undefined) | 228 to 231 °C |
| CC12CCC(=O)C=C1CCC1C2C(O)CC2(C)C1CCC2(O)C(=O)COC(=O)CC(CC(=O)O)c1ccc(O)cc1 (centres undefined) | 98 to 110 °C |
| CC(C)C1=Cc2cc(OCC(=O)O)c(Cl)c(Cl)c2C1=O | 176 °C |
| O=C(Nc1cccc(S(=O)(=O)NC2(CO)CCCC2)c1)c1cnn2c(C3CC3)cc(-c3ccc(Cl)cc3)nc12 | 255 to 257 °C |
| CCN(CC)C(=O)/C=C(\C)c1ccc(OCc2c(F)cccc2F)c(CC(=O)O)c1 | 167 to 168 °C |
| O=c1nc(-c2cccc(Cl)c2)c2cc(Br)ccc2[nH]1 | 281 °C |
| COc1ccc(-c2ccc(C(=O)O)c(C(=O)O)c2)c2c1OCCO2 | 192 to 196 °C |
| O=C(Nc1ccc(OCCN2CCOCC2)c2ccccc12)NC1CC1c1ccccc1 (centres undefined) | 156 to 157 °C |

| SMILES | melting point |
| --- | --- |
| CC(=O)N(C)CCc1coc2ccc3c(c12)CCCO3 | 82 °C |
| COc1ccccc1N1CCN(CCN(C(=O)C2CCCCC2)c2ccccc2OCC(F)(F)F)CC1 | 110 to 112 °C |
| COC(=O)CCc1cc(C(=O)c2ccc(OC)cc2)c(OC)cc1OC | 114 to 117 °C |
| Cc1cccc2c1C(=O)NS2(=O)=O | 224 to 226 °C |
| COC(=O)CCn1c(=O)n2n(c1=O)C(C(=O)OC)C=CC2C(=O)OC (centres undefined) | 139 to 141 °C |
| CCCc1nccn1-c1ncnc2nc[nH]c12 | 242 to 244 °C |
| C[C@@H](CO)Cn1c(C(=O)NCc2cc(C(F)(F)F)cc(C(F)(F)F)c2)c(-c2ccccc2)c2cccnc2c1=O | 101 to 103 °C |
| CCOC(=O)c1cc2cc(Oc3ccc(S(C)(=O)=O)cc3)cc(OCc3nccn3C)c2[nH]1 | 91 to 92 °C |
| CC(C)(NC(=O)OCc1ccccc1)C(=O)Nc1ccc([N+](=O)[O-])cc1C(=O)c1ccccc1F | 153 to 155 °C |
| C#CC1(O)C=CC2C3CCC4=CC(=O)CCC4C3C(Cl)CC21CC (centres undefined) | 202 °C |
| O=C(c1ccc(-c2ccccc2)s1)c1ccc(Br)cc1Cl | 132 to 134 °C |
| CCNC(=O)c1ccc(C=C(C)c2ccc3c(c2)C(C)(C)CCO3)cc1 | 161 to 163 °C |
| c1ccc2c(c1)N=C(C1CCCCC1)c1cccc3c1N2CC3 | 104 to 106 °C |
| Cc1cccc(-c2[nH]c(C(C)C)nc2-c2ccc(F)c(-c3ccc(C)[nH]3)c2)n1 | 118 to 121 °C |
| COCCOC(=O)C1=C(C)NC(C)=C(C(=O)OCCOC)C1c1ccccc1OC(F)F | 94 to 95 °C |
| COc1ccc(C)cc1NC(=O)Nc1ccc(N2CCN(C(=O)Nc3c(CO)cccc3C(F)(F)F)CC2)cc1 | 139 to 140 °C |
| CC1=NC(NC(=O)OCc2ccccc2)C(=O)N(CC(=O)C(C)(C)C)c2ccccc21 (centres undefined) | 68 °C |
| OCC(O)Cc1ccccc1OCc1ccc2ccccc2c1 (centres undefined) | 119 to 120 °C |
| COc1c(N=[N+]=[N-])ccnc1C#N | 102 °C |
| CCOC(=O)c1ncc2[nH]c3ccc(C(C)OC)cc3c2c1C (centres undefined) | 96 to 97 °C |
| CCOc1c(C(=O)OCC(C)(C)C(=O)C(C)(C)C)oc2ccc(OC)cc12 | 105 to 106 °C |
| CC(O[Si](C)(C)C(C)(C)C)C1C(=O)NC1C1CCCC(OCCF)C1O (centres undefined) | 106 to 110 °C |
| CCOc1ncc(C(C)=O)cc1-c1nc2c(CC)n(CC3CC3)nc2c(=O)[nH]1 | 200 to 201 °C |
